Results published in US8710085B2, “Pyrrolidine-1,2-dicarboxamide derivatives” (Novartis AG, priority 2008, dated 2014).
Where two headings read alike, the source gives them in different places.

Key:
Assay type in all cases: biochemical
PI3Kδ = target: T1, PI3Kδ (Homo sapiens, UniProt O00329); assay: PI3K KinaseGlo assay, PI3Kδ; details: 10 nM enzyme, 1 μM ATP, 30 mins, room temperature, read-out: PI3Kd/IC50
T1 construct: p85iSH2(461-568)-GGGGGG-p110δ(2-1044)-His; made in house; host or cells: baculovirus, Tn5 insect cells

PI3Kβ = target: T2, PI3Kβ (Homo sapiens, UniProt P42338); assay: PI3K KinaseGlo assay, PI3Kβ
T2 construct: p110β(2-1070)-His; made in house; host or cells: baculovirus, Tn5 insect cells
Method: (§1) PI3K KinaseGlo assay: 50 mL of compound dilutions were dispensed onto black 384-well low volume Non Binding Styrene (NBS) plates (Costar Cat. No. NBS#3676). L-a-phosphatidylinositol (PI), provided as 10 mg/ml solution in methanol, was transferred into a glass tube and dried under nitrogen beam. It was then resuspended in 3% OctylGlucoside (OG) by vortexing and stored at 4° C. The KinaseGlo Luminescent Kinase Assay (Promega, Madison/WI, USA) is a homogeneous HTS method of measuring kinase activity by quantifying the amount of ATP remaining in solution following a kinase reaction.
(§2) 5 μL of a mix of PI/OG with the PI3K subtype were added (Table 1). Kinase reactions were started by addition of 5 μl of ATP-mix containing in a final volume 10 μL 10 mM TRIS-HCl pH 7.5, 3 mM MgCl2, 50 mM NaCl, 0.05% CHAPS, 1 mM DTT and 1 μM ATP, and occurred at room temperature. […] The standard was used as a reference compound and included in all assay plates in the form of 16 dilution points in duplicate.
The PI3Kα, PI3Kβ and PI3Kδ constructs are fusion of p85α iSH2 domain and the respective p110 isoforms. The p85α fragment and p110 isoform genes were generated by PCR from first strand cDNA generated by RT-PCR from commercial RNA from placenta, testis and brain as described below. The PI3Kγ construct was obtained from Roger Williams lab, MRC Laboratory of Molecular Biology, Cambridge, UK (November, 2003) and is described (Pacold, Michael E.; Suire, Sabine; Perisic, Olga; Lara-Gonzalez, Samuel; Davis, Colin T.; Walker, Edward H.; Hawkins, Phillip T.; Stephens, Len; Eccleston, John F.; Williams, Roger L. Crystal structure and functional analysis of Ras binding to its effector phosphoinositide 3-kinase gamma. Cell (2000), 103(6), 931-943).
BV949: PCR products for the inter SH2 domain (iSH2) of the p85 PI3Kα, PI13Kβ and PI3Kδ subunit and for the full-length p110β subunit were generated and fused by overlapping PCR. […] The p11013 fragment was obtained by PCR using as template a p110β clone (from unknown source that was sequence verified) using primers gwG130-p04 (5′-[…]-[…]-3′) (SEQ ID NO: 9) which contains linker sequences and the 5′ end of p110β and gwG130-p06 (5′-[…]-[…]-3′) (SEQ ID NO: 10) which contains sequences of the 3′ end of p110-β fused to a Histidine tag. […] This final product was recombined in a Gateway (Invitrogen) […] into the donor vector pDONR201 (Invitrogen) to generate the ORF253 entry clone. This clone was verified by sequencing and used in a Gateway LR reaction (Invitrogen) to transfer the insert into the Gateway adapted pBlueBac4.5 (Invitrogen) vector for generation of the baculovirus expression vector LR280.
(§3) PI3Kα, PI3Kβ and PI3Kγ were purified in two chromatographic steps: immobilized metal affinity chromatography (IMAC) on a Ni sepharose resin (GE Healthcare) and gel filtration utilizing a Superdex 200 26/60 column (GE Healthcare). All buffers were chilled to 4° C. and lysis was performed chilled on ice. Column fractionation was performed at room temperature. All buffers used to purify PI3Kβ contained 0.05% Triton X100 in addition to what is described below.
The lysate was centrifuged at 45,000 g for 30 minutes, and the supernatant was loaded onto a pre-equilibrated IMAC column (3 mL resin/100 mL lysate). […] Protein was eluted with 20 mM Tris-Cl, pH 7.5, 0.5 M NaCl, 5% glycerol, 250 mM imidazole, 1 mM NaF, 0.1 μg/mL OAA, 5 mM BME, 1× Complete protease inhibitor cocktail—EDTA-free. Pertinent fractions were analyzed by SDS-PAGE and pooled accordingly. The protein was further purified by gel filtration on a Superdex 200 26/60 column equilibrated in 20 mM Tris-Cl, pH 7.5, 0.5 M NaCl, 5% glycerol, 1 mM NaF, 5 mM DTT, 1× Complete protease inhibitor cocktail—EDTA-free. Pertinent fractions were analyzed by SDS-PAGE and pooled accordingly.

PI3Kγ = target: T3, PI3Kγ (Homo sapiens, UniProt P48736, Q459R); assay: PI3K KinaseGlo assay, PI3Kγ; details: 150 nM enzyme, 1 μM ATP, 90 mins, room temperature, read-out: PI3Kg/IC50
T3 construct: p110γ(Δ143-[Met144-1102])-His; made in house; host or cells: Tn5 insect cells; construct from Roger Williams lab, MRC LMB
Method: as §1, with “L-a-phosphatidylinositol” for “PI3K KinaseGlo assay: 50 mL of compound dilutions were dispensed onto black 384-well low volume Non Binding Styrene (NBS) plates (Costar Cat. No. NBS#3676). L-a-phosphatidylinositol”
as §2, with “duplicate. […]” for “duplicate.”
as §3
The lysate was centrifuged at 45,000 g for 30 minutes, and the supernatant was loaded onto a pre-equilibrated IMAC column (3 mL resin/100 mL lysate). […] Protein was eluted with 20 mM Tris-Cl, pH 7.5, 0.5 M NaCl, 5% glycerol, 250 mM imidazole, 1 mM NaF, 0.1 μg/mL OAA, 5 mM BME, 1× Complete protease inhibitor cocktail—EDTA-free. Pertinent fractions were analyzed by SDS-PAGE and pooled accordingly. The protein was further purified by gel filtration on a Superdex 200 26/60 column equilibrated in 20 mM Tris-Cl, pH 7.5, 0.5 M NaCl, 5% glycerol, 1 mM NaF, 5 mM DTT, 1× Complete protease inhibitor cocktail—EDTA-free. Pertinent fractions were analyzed by SDS-PAGE and pooled accordingly. An equal volume of Dialysis Buffer (20 mM Tris-Cl, pH 7.5, 500 mM NaCl, 50% glycerol, 5 mM NaF, 5 mM DTT) was added to the pool and than dialyzed against Dialysis Buffer two changes (one change overnight). Protein was stored at −20° C.

PI3Kα = target: T4, PI3Kα (Homo sapiens, UniProt P42336); assay: PI3K KinaseGlo assay, PI3Kα
T4 construct: p110α(21-1068)-His; made in house; host or cells: baculovirus, Tn5 insect cells

[1] = KinaseGlo, 25 nM enzyme, 1 μM ATP, 30 mins, room temperature, read-out: PI3Kb/IC50
[2] = KinaseGlo, 10 nM enzyme, 1 μM ATP, 30 mins, room temperature, read-out: PI3Ka/IC50
[3] = KinaseGlo, 10 nM enzyme, 1 μM ATP, 30 mins, room temperature

T4 sequence (P42336 with tags, fused parts or gaps): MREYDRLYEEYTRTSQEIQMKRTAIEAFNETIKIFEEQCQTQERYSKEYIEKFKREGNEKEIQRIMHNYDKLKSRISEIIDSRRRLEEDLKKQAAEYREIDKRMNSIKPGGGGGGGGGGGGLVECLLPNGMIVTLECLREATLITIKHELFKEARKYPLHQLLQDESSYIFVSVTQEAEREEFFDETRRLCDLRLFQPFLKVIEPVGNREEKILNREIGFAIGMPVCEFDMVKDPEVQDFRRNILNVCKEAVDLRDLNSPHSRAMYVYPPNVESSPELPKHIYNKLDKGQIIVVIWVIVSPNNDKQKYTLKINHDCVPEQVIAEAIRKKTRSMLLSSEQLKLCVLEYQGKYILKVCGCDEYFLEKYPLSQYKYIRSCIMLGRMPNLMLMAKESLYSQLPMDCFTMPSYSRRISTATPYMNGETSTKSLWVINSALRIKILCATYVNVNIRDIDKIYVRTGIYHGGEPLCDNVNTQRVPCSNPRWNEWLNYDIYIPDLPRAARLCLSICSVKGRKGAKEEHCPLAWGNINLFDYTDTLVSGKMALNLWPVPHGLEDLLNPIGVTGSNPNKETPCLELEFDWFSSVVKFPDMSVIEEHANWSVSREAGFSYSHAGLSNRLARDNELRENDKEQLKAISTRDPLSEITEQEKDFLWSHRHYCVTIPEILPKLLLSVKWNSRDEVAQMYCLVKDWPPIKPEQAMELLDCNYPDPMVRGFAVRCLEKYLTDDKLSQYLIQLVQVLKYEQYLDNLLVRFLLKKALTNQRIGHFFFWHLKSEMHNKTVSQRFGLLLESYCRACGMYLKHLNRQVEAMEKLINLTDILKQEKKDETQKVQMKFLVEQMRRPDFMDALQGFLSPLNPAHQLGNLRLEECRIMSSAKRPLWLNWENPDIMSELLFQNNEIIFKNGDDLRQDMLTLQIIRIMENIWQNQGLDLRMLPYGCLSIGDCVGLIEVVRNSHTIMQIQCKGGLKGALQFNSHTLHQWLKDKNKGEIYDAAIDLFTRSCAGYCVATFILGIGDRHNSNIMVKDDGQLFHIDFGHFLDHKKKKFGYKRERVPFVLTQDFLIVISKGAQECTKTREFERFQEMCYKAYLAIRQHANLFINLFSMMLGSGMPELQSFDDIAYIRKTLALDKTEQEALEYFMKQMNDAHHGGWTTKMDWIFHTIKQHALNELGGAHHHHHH
T2 sequence (P42338 with tags, fused parts or gaps): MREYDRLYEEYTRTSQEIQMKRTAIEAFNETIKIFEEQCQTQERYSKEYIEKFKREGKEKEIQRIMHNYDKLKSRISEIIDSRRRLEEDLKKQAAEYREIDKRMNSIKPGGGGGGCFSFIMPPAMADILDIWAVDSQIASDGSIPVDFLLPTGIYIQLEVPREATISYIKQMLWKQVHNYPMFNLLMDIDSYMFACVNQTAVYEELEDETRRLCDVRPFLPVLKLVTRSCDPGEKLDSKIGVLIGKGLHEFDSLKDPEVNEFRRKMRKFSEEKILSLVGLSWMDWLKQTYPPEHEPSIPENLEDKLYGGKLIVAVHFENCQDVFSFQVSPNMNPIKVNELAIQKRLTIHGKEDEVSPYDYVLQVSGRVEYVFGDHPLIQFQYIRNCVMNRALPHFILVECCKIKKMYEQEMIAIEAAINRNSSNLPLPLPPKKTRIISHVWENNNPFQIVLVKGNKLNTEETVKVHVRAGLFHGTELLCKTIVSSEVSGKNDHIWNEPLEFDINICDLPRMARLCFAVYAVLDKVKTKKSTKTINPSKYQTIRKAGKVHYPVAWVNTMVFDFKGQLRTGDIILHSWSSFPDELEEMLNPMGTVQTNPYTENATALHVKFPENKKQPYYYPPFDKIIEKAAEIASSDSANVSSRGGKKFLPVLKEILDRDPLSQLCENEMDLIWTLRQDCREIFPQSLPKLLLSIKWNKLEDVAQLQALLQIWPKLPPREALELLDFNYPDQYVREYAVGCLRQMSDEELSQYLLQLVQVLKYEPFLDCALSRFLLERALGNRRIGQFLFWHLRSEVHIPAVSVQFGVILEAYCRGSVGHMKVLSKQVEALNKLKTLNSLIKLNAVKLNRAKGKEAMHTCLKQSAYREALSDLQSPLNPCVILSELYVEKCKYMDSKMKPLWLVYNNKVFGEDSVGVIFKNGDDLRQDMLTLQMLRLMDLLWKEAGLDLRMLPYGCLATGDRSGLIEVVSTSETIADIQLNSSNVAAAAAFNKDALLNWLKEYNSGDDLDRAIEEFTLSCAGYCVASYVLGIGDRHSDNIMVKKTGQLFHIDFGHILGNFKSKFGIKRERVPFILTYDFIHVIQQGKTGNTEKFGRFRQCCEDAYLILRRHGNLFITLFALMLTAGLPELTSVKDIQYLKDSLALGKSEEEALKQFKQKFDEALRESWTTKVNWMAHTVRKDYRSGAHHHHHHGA
T1 sequence (O00329 with tags, fused parts or gaps): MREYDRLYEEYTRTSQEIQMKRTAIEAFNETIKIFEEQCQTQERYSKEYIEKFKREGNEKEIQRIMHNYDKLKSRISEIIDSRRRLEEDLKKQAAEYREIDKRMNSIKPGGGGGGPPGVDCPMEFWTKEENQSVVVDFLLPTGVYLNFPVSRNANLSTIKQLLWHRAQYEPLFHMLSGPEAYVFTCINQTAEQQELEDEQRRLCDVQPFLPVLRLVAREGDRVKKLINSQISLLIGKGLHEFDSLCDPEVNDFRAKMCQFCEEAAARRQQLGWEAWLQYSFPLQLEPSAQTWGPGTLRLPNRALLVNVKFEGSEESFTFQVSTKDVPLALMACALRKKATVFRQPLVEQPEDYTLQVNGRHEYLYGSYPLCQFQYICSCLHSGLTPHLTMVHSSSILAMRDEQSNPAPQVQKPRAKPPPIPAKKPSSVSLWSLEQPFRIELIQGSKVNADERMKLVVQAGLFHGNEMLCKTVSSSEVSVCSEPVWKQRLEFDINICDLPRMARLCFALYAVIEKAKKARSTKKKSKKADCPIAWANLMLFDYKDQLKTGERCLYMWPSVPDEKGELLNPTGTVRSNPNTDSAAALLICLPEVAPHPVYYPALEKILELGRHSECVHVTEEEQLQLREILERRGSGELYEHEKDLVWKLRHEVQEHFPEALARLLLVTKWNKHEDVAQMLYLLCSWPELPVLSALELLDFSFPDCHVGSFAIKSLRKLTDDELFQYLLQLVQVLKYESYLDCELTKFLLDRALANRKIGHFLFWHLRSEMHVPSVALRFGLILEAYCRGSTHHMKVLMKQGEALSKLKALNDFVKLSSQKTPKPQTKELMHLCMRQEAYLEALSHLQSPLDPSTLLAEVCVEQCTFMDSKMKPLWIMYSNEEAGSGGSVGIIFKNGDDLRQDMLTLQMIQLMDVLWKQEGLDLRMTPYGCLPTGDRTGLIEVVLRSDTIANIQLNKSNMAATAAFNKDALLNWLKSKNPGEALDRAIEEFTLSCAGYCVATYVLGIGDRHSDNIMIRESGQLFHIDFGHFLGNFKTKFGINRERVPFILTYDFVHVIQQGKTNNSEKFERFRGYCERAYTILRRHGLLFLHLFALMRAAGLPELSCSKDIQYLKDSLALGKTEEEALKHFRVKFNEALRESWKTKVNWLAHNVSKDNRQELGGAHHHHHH
T3 sequence (P48736 with tags, fused parts or gaps Q459R): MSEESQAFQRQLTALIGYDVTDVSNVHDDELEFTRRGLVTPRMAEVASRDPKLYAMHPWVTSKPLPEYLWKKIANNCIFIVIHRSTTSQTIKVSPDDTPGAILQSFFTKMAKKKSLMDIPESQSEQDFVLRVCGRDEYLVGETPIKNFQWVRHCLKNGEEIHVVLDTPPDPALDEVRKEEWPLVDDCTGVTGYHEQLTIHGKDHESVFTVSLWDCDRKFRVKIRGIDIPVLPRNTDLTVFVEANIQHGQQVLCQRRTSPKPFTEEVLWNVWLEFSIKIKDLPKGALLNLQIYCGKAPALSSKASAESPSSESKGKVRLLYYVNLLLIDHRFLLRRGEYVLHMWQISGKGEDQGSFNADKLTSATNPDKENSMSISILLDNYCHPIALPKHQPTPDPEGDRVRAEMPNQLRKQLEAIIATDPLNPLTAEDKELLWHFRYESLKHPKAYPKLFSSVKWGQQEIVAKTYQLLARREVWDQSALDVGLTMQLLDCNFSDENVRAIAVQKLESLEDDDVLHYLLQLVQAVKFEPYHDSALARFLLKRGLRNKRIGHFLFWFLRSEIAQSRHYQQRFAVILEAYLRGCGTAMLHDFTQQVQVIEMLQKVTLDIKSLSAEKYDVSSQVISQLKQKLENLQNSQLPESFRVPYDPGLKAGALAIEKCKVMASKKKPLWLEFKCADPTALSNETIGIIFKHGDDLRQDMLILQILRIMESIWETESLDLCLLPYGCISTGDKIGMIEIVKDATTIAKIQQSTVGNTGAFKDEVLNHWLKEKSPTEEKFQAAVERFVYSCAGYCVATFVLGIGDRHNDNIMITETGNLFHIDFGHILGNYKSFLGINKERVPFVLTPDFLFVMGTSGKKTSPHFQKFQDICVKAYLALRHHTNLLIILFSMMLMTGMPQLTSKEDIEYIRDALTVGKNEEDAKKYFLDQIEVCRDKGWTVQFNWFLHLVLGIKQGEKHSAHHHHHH

Compound | IC50 (PI3Kδ) [nM] | IC50 (PI3Kβ; [1]) [nM] | IC50 (PI3Kγ) [nM] | IC50 (PI3Kα; [2]) [nM] | IC50 (PI3Kα) [nM] | PI3Ka/IC50 (PI3Kα; [3]) [umol I-1] | IC50 (PI3Kβ) [nM]
Cc1nc(NC(=O)N2CCC[C@H]2C(N)=O)sc1-c1ccnc(C(C)(C)C)c1 [Example 1, (S)-Pyrrolidine-1,2-dicarboxylic acid 2-amide 1-{[5-(2-tert-butyl-pyridin-4-yl)-4-methyl-thiazol-2-yl]-amide}] | 971 | 4430 | 680 |  |  |  | 
Cc1nc(NC(=O)N2CCC[C@H]2C(N)=O)sc1-c1ccnc(-c2ccccc2F)c1 [Example 3, (S)-Pyrrolidine-1,2-dicarboxylic acid 2-amide 1-({5-[2-(2-fluoro-phenyl)-pyridin-4-yl]-4-methyl-thiazol-2-yl}-amide)] | 432 | 2300 | 362 | 67 |  |  | 
CC(C)(c1cc(-c2cnc(NC(=O)N3CCC[C@H]3C(N)=O)s2)ccn1)C(F)(F)F [Example 12, (S)-Pyrrolidine-1,2-dicarboxylic acid 2-amide 1-({5-[2-(2,2,2-trifluoro-1,1-dimethyl-ethyl)-pyridin-4-yl]-thiazol-2-yl}-amide)] | 197 | 3870 | 352 |  | 10 |  | 
NC(=O)[C@@H]1CCCN1C(=O)Nc1ncc(-c2ccnc(C3(C(F)(F)F)CCC3)c2)s1 [Example 13, (S)-Pyrrolidine-1,2-dicarboxylic acid 2-amide 1-({5-[2-(1-trifluoromethyl-cyclobutyl)-pyridin-4-yl]-thiazol-2-yl}-amide)] | 161 | 4490 | 183 |  |  |  | 
Cc1nc(NC(=O)N2CCC[C@H]2C(N)=O)sc1-c1ccnc(C2(C#N)CC2)c1 [Example 18, (S)-Pyrrolidine-1,2-dicarboxylic acid 2-amide 1-({5-[2-(1-cyano-cyclopropyl)pyridin-4-yl]-4-methyl-thiazol-2-yl}-amide)] | 538 | 4140 | 612 |  |  | 0.019 | 
COc1ccc(C(C)(C)c2cc(-c3sc(NC(=O)N4CCC[C@H]4C(N)=O)nc3C)ccn2)cc1 [Example 27, (S)-Pyrrolidine-1,2-dicarboxylic acid 2-amide 1-[(5-{2-[1-(4-methoxy-phenyl)-1-methyl-ethyl]-pyridin-4-yl}-4-methyl-thiazol-2-yl)-amide]] | 271 | 5200 | 1560 | 81 |  |  | 
COc1ccc(C2(c3cc(-c4sc(NC(=O)N5CCC[C@H]5C(N)=O)nc4C)ccn3)CC2)cc1 [Example 29, (S)-Pyrrolidine-1,2-dicarboxylic acid 2-amide 1-[(5-{2-[1-(4-methoxy-phenyl)-cyclopropyl]-pyridin-4-yl}-4-methyl-thiazol-2-yl)-amide]] | 804 | 6170 | 684 | 56 |  |  | 
Cc1nc(NC(=O)N2CCC[C@H]2C(N)=O)sc1-c1ccnc(C2(C)CC2)n1 [Example 42, (S)-Pyrrolidine-1,2-dicarboxylic acid 2-amide 1-({4-methyl-5-[2-(1-methylcyclopropyl)-pyrimidin-4-yl]-thiazol-2-yl}-amide)] | 289 |  | 858 |  |  |  | 3170

Continued, in another order:

IC50 (PI3Kδ) [nM] | IC50 (PI3Kβ; [1]) [nM] | IC50 (PI3Kγ) [nM] | IC50 (PI3Kα; [2]) [nM] | IC50 (PI3Kα) [nM] | PI3Ka/IC50 (PI3Kα; [3]) [umol I-1] | Compound | IC50 (PI3Kβ) [nM]
386 | 5520 | 4450 |  |  | 0.039 | CC(C)(c1cc(-c2sc(NC(=O)N3CCC[C@H]3C(N)=O)nc2Cl)ccn1)C(F)(F)F [Example 37, (S)-Pyrrolidine-1,2-dicarboxylic acid 2-amide 1-({4-chloro-5-[2-(2,2,2-trifluoro-1,1-dimethyl-ethyl)-pyridin-4-yl]-thiazol-2-yl}-amide)] | 
156 | 2900 | 1870 | 94 |  |  | Cc1nc(NC(=O)N2CCC[C@H]2C(N)=O)sc1-c1ccnc(Cc2c(Cl)cccc2Cl)n1 [Example 47, (S)-Pyrrolidine-1,2-dicarboxylic acid 2-amide 1-({5-[2-(2,6-dichloro-benzyl)pyrimidin-4-yl]-4-methyl-thiazol-2-yl}-amide)] | 
690 | 8840 | 3480 | 113 |  |  | Cc1nc(NC(=O)N2CCC[C@H]2C(N)=O)sc1-c1ccnc(-c2ccccc2F)n1 [Example 51, (S)-Pyrrolidine-1,2-dicarboxylic acid 2-amide 1-({5-[2-(2-fluoro-phenyl)pyrimidin-4-yl]-4-methyl-thiazol-2-yl}-amide)] | 
881 | 3500 | 917 | 64 |  |  | Cc1nc(NC(=O)N2CCC[C@H]2C(N)=O)sc1-c1ccnc(C2CC2)n1 [Example 59, (S)-Pyrrolidine-1,2-dicarboxylic acid 2-amide 1-({4-methyl-5-[2-cyclopropyl-pyrimidin-4-yl]thiazol-2-yl-}-amide)] | 
98 | 1200 | 790 |  |  | 0.016 | CCN(CC)c1nccc(-c2sc(NC(=O)N3CCC[C@H]3C(N)=O)nc2C)n1 [Example 63, (S)-Pyrrolidine-1,2-dicarboxylic acid 2-amide 1-{[5-(2-diethylamino-pyrimidin-4-yl)-4-methyl-thiazol-2-yl]-amide}] | 
